In PubChem BioAssay AID1645848:
Values after ≈ are worked out from the molar mass of the structure shown.

conditions: buffer; pH 7.4; 6.0 h; 150.0 µM

Compound | solubility kinetic [µg/mL]
O=[S+]([O-])(Nc1nccs1)c1ccc(NCc2ccc(Cl)c(Cl)c2)cc1 | < 1
CCN(CC)CCNC(=O)C1CCN(c2nn3cc(-c4ccc(F)cc4)nc3s2)CC1 | > 66
CN(C)C(=O)c1cc(-c2ccc(S(C)(=O)=O)cc2)c2cnn(C)c2n1 | > 53
CCOC(=O)c1[nH]c(C)c(CCC(=O)N2CCN(c3cc(C)ccc3C)CC2)c1C | 6.25 (≈ 15.2 µM)
CCN1CCCC1CNC(=O)c1cc(S(=O)(=O)CC)c(N)cc1OC (stereo not drawn) | 36.2 (≈ 98.1 µM)
COc1ccccc1-c1[nH]nc2ncc(-c3ccc(C)cc3)nc12 | < 1
NC(=O)C1CCN(c2nc(-c3ccc4occc(=O)c4c3)cs2)CC1 | > 52
O=C(O)c1cccc(-c2cnc3ccccc3c2)c1 | > 37
COc1ccccc1Nc1ccnc(N2CCN(C(=O)c3ccc(C)cc3)CC2)n1 | 2.64 (≈ 6.54 µM)
CC[C@@H]1C(=O)N(C)c2cnc(Nc3ccc(C(=O)NC4CCN(C)CC4)cc3OC)nc2N1C1CCCC1 | > 77
CNc1nc(-c2cccc3ccccc23)ccc1C#N | < 1
N=c1c2ccccc2nnn1-c1ccc(C(F)(F)F)cc1 | < 1
Cc1ccc(OCCn2c(CCNC(=O)c3ccccc3Br)nc3ccccc32)cc1 | < 1
c1ccc(Nc2cc3c(cn2)CN(Cc2ccc4[nH]ccc4c2)CCN3)cc1 | 30.6 (≈ 82.8 µM)
O=C(COC(=O)CCC(=O)c1cccs1)NCc1ccco1 | > 47
O=C(Nc1ccc([S+](=O)([O-])Nc2nccs2)cc1)c1ncn[nH]1 | > 52
COc1ccccc1C(=O)Nc1nc2nc(C)cc(=O)n2[nH]1 | > 44
COc1cccc(NC(=O)c2cccc3c(=O)c4c([nH]c23)CCCC4)c1 | < 1
COc1cc(CNCCO)cc(Cl)c1OCc1ccc(Cl)cc1Cl.Cl | 40
COc1ccc(CN2CCN(C(=O)c3cc4c(s3)CCC4)CC2)cc1 | > 53
Cc1cc(-c2nnc3n2CCCCC3)c(C)n1-c1ccccc1 | > 45
CC(C)OC(=O)c1ccnc2cc(C(OCCN3CCCCC3)c3ccccc3Cl)sc12 (stereo not drawn) | 16.6 (≈ 35 µM)
COc1cccc(-c2noc(Nc3ccc4c(c3)OCCO4)n2)c1 | < 1

Compound | solubility kinetic [µg/mL]
C[C@H]1CN(C(=O)c2nn(C)c3ccccc23)C[C@@H]1c1nc(-c2ccncc2)no1 | 34.9 (≈ 89.8 µM)
CNc1sc(-c2cccc3ccccc23)nc1C#N | < 1
O=C(Nc1ccc2c(N3CCOCC3)ncnc2c1)c1cccc(Br)c1 | 9.48 (≈ 22.9 µM)
Cc1ccc(-c2cc(C(=O)Nc3ccc(S(=O)(=O)N(C)Cc4nccs4)cc3)c3ccccc3n2)cc1C | 3.73 (≈ 6.88 µM)
CC(=O)N[C@H]1CN(C2CCN(c3ccc(F)cc3C)CC2)C[C@@H]1C1CC1 | 20.3 (≈ 56.4 µM)
Cn1cnc(-c2nccc3c(=O)[nH]c(OCCCC(F)(F)F)nc23)c1 | > 52
N#CC1CCN(c2nc(-c3ccc(Br)cc3)cs2)CC1 | 1.46 (≈ 4.19 µM)
Cc1ccc2c(c1)c(=O)c1ccccc1n2CCCC(=O)Nc1cc(Cl)ccc1C | < 1
Cc1ccc(S(=O)(=O)Nc2cnccc2C(=O)Nc2ccc(N3CCOCC3)cc2)cc1 | > 67
CCOc1ccc(OCC)c(NC(=O)C(NS(=O)(=O)c2ccc(Br)s2)c2ccccc2)c1 (stereo not drawn) | < 1
COc1ccc(-c2ccc(C(=O)NC3CC(c4cc(=O)[nH]c(N)n4)C3)o2)cc1 (stereo not drawn) | 30.4 (≈ 79.9 µM)
CC[C@H]1CN(C)[C@H]2Cc3c([nH]c4ccccc34)C(=O)C[C@H]1[C@H]2C(=O)OC | > 52
Cc1cccc(C)c1Nc1c(-c2ccccn2)nc2ccc(Cl)cn12 | < 1
O=[S+]([O-])(Nc1ccc2ccccc2c1)c1ccc(NCc2ccc(Cl)cc2O)cc1 | < 1
CCCSc1nc(N[C@@H]2C[C@H]2c2ccc(F)c(F)c2)c2nnn([C@@H]3C[C@H](OCCO)[C@@H](O)[C@H]3O)c2n1 | < 1
COc1cccc(CNc2ccc(S(=O)(=O)Nc3ccc(C)nc3)cc2)c1O | 16.5 (≈ 41.2 µM)
COc1cc(OC)cc(-c2csc(N3CCC(C(N)=O)CC3)n2)c1 | > 51
COC(=O)c1ccc([C@H]2c3[nH]c4ccccc4c3C[C@H](C(=O)OC)N2C(=O)CCl)cc1 | < 1
CC(C)c1c(-c2ccccc2)nc2c(C#N)c[nH]n2c1=O | > 41
Fc1ccc(Nc2nc(-c3ccncc3)nc3ccccc23)cc1F | < 1
Brc1ccccc1-c1nc(NCc2ccc(-c3cccnc3)cc2)c2ccccc2n1 | < 1
COc1ccccc1NC(=O)C1=C(C)Nc2c(C(=O)Nc3ccc(F)cc3)cnn2C1c1ccc(Cl)cc1 (stereo not drawn) | < 1
CCOc1cc2ncc(C#N)c(Nc3ccc(OCc4ccccn4)c(Cl)c3)c2cc1NC(=O)/C=C/CN(C)C | < 1

Compound | solubility kinetic [µg/mL]
O=[S+]([O-])(Nc1ccc(N2CCNCC2)cc1)c1ccc(NCc2cccc(Cl)c2O)cc1 | 52.4 (≈ 111 µM)
COCCNCc1ccc(-c2cc3nccc(Oc4ccc(NC(=O)C5(C(=O)Nc6ccc(F)cc6)CC5)cc4F)c3s2)nc1 | < 1
CC1CCN(S(=O)(=O)c2ccc3c(ccc(=O)n3CC(=O)NCc3ccc(Cl)cc3)c2)CC1 | < 1
CCN(CC)C(=O)c1coc(COc2ccc3c(c2)C(c2cccc(F)c2)N(C(=O)C(C)C)CC3)n1 (stereo not drawn) | < 1
O=C1/C(=C\c2ccccc2)C[C@@]2(O)C3Cc4ccc(O)c5c4[C@@]2(CCN3CC2CC2)[C@H]1O5 | > 42
CC[C@H]1NC(=O)[C@@H](NC(=O)c2ncccc2O)[C@@H](C)OC(=O)[C@H](c2ccccc2)NC(=O)[C@@H]2CC(=O)CCN2C(=O)[C@H](Cc2ccccc2)N(C)C(=O)[C@@H]2CCCN2C1=O | > 100
CN1Cc2c(cc(N3CCOCC3)nc2-c2ccccc2OC(F)(F)F)C1=O | 12.1 (≈ 30.8 µM)
CCc1oc2ccccc2c1C(=O)c1cc(Br)c(O)c(Br)c1 | > 62
Nc1nccc2c1ncn2[C@@H]1C=C(CO)[C@@H](O)[C@H]1O | > 39
NC(=O)C1CCN(c2nc(-c3ccccc3[N+](=O)[O-])cs2)CC1 | > 49
Nc1ncnc(N2CCc3ccccc32)c1[N+](=O)[O-] | < 1
CC(=O)N1CCc2c(sc3c2c(=O)n(-c2ccccc2)c(=O)n3Cc2cccc(C(F)(F)F)c2)C1 | 10 (≈ 20.1 µM)
CNC(=O)c1ccccc1Nc1nc(Nc2ccc(N3CCOCC3)cc2OC)ncc1Cl | 4.18 (≈ 8.91 µM)
CC(C)N(CCCNC(=O)Nc1ccc(C(C)(C)C)cc1)C[C@H]1O[C@@H](n2cc(Br)c3c(N)ncnc32)[C@H](O)[C@@H]1O | 73 (≈ 118 µM)
COc1ccc(NC(=O)c2cccnc2)cc1S(=O)(=O)Nc1ccc(Br)cc1 | 33.5 (≈ 72.5 µM)
Cc1nc(N2CCN(c3ccccn3)CC2)c2c(C)c(C(=O)Nc3ccc(F)cc3Cl)sc2n1 | < 1
CCOc1cc(-c2nccc3cc(OC)c(OC)cc23)cc(OCC)c1OCC | 13.8 (≈ 34.6 µM)
CN([C@@H](Cc1ccc(O[S+](=O)([O-])c2cccc3cnccc23)cc1)C(=O)N1CCN(C(=O)OCc2ccccc2)CC1)[S+](=O)([O-])c1cccc2cnccc12 | 1.26 (≈ 1.61 µM)
Brc1ccc(-c2csc(N3CCC(c4nn[nH]n4)CC3)n2)cc1 | > 58
Cc1cnc(-c2ccccc2C(C)C)nc1NCC1CCN(c2cccnc2)CC1 | < 1
Nc1nc2c(s1)C(c1ccc(F)cc1F)CC(=O)N2 (stereo not drawn) | 23.2 (≈ 82.4 µM)
CC(C)c1ccc(OCc2nc3c(n2Cc2ccccc2)C(=O)N(CC2CC2)CCN3)cc1 | < 1
